Reference: US12599609B2, “Methods of treating fuchs endothelial corneal dystrophy after descemetorhexis” (KOWA COMPANY, LTD., priority 2021, dated 2026)
Counter-ions that a name gives are not always drawn.

Tested on: patients with FECD after descemetorhexis
Test: Phase 2 study of ripasudil eye drops after descemetorhexis in patients with Fuchs endothelial corneal dystrophy
Format: in vivo, human
Conditions: BID and QID dosing of a 0.4% formulation, topical to the eye
From the text: As a condition of participating in the clinical study described in Example 3, each patient will undergo descemetorhexis of a study eye selected by the investigator for surgery. A digital photo of the study eye is taken immediately before and immediately after the descemetorhexis. The investigator will perform descemetorhexis to remove central confluent guttae, removing an area of Descemet membrane with a diameter of 4.5 to 5.5 mm. The longest diameter and the shortest diameter must be recorded. Detailed procedures for performing descemetorhexis are described in several literature references, including, for example, Macsai M S, Shiloach M. Cornea. 2019; 38:529-534, and Moloney G, Congote D G, Hirnschall N, et al. Cornea. 2020 Jul. 31. doi: 10.1097/ICO.0000000000002437. Online ahead of print.
Recommended post-descemetorhexis concomitant therapy consists of broad spectrum antibiotic (0.5% moxifloxacin hydrochloride) instilled at least once daily for 1 week and glucocorticoid (1% prednisolone acetate) instilled 3 times daily for the first 7 days, followed by once daily for the next 7 days, and terminated thereafter. The investigator may add antibiotic and glucocorticoid dosing after this 14 days as rescue therapy if the investigator judges it necessary. When more than 1 different eye drop is administered (including study drug), the study drug must be administered first, followed by any non-study eye drop (after at least 5 minutes have passed).
In this U.S. FDA approved study, the primary objective is to investigate the effect of K-321 dosed for 12 weeks on central ECD in patients with FECD after descemetorhexis. […]

C[C@H]1CNCCCN1S(=O)(=O)c1cccc2cncc(F)c12 [ripasudil hydrochloride, Ripasudil]
demonstrated particular benefit: improving best corrected visual acuity (BCVA) | improving central corneal endothelial corneal density (ECD) | reduction of corneal edema
